Laboratory results as given in patent US20220144775A1, “HYDRAZIDE COMPOUND AND KINASE INHIBITOR” (NISSAN CHEMICAL CORPORATION, priority 2019, published 2022).

Target: T1, LATS1 (Homo sapiens, UniProt O95835)
T1 construct: purchased Carna Biosciences
T1 sequence (O95835 1-1130): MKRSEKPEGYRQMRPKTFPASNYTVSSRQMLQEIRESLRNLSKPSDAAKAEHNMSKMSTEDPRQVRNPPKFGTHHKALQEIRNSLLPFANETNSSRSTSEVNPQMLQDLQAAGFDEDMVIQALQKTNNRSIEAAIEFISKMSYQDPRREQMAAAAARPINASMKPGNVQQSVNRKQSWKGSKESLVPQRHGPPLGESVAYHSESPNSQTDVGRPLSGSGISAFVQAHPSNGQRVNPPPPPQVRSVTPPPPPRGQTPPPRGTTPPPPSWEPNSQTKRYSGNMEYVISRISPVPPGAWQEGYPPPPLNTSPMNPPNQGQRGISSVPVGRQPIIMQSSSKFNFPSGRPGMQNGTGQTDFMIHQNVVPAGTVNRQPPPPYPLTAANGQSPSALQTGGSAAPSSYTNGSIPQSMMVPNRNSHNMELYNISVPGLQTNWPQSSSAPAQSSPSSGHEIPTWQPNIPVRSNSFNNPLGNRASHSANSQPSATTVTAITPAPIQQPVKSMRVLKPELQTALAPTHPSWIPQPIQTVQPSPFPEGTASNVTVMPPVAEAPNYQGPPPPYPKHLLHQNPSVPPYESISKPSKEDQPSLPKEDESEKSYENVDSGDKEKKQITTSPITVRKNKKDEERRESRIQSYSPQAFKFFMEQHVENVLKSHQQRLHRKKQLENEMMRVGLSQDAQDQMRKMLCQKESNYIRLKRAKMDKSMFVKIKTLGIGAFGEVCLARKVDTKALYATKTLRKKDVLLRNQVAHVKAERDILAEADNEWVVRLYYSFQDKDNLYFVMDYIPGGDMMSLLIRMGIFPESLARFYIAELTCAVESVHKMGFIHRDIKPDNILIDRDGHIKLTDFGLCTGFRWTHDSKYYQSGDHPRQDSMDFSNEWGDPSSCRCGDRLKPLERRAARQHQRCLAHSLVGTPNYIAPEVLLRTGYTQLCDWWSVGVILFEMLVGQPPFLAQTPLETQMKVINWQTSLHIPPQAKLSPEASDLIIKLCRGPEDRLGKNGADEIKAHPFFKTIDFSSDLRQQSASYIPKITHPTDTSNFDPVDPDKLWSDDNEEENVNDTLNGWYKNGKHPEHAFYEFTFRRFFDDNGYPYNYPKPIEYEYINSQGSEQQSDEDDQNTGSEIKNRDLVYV
Assay: Kinase inhibitory activity against LATS1 (ADP quantification)
Format: biochemical
Conditions: ATP 400 μM, read-out: kinase inhibitory rate
Method: Evaluation of the inhibitory activity (calculation of kinase inhibitory rate) of the compound of the present invention against LATS1 and LATS2 (manufactured by Carna Biosciences) was performed. The activity was measured using the Kinase Assay method described below. The test concentration of the compound of the present invention was set such that the final concentration was 100 nM or 1000 nM.
As the analysis method of the data, the mean signal of the control well containing reaction components other than the compound of the present invention was set to 0% inhibition, the mean signal without enzyme addition was set to 100% inhibition, and the inhibition rate was calculated from the mean signal of 2 wells of each compound.
2 μL of a compound of the present invention solution at 2.5-fold concentration, 1 μL of substrate at 5-fold concentration (SGKtide: NH2-CKKRNRRLSVA-COOH, manufactured by SignalChem), ATP (manufactured by Sigma-Aldrich), MgCl2 (manufactured by FUJIFILM Wako Pure Chemical Corporation) solution (final concentration 10 μM, 400 μM and 5 mM, respectively), and 2 μL of kinase solution at 2.5-fold concentration (final concentration of LATS1 or LATS2 5 μg/mL), each prepared with assay buffer (20 mM HEPES, 0.01% Triton X-100, 2 mM DTT, 50 μg/mL BSA, pH 7.5), were mixed in the wells of a polypropylene 384-well plate (manufactured by Greiner Bio-One, #784900) and reacted at room temperature for 5 hr. To the solution was added 5 μL detection solution [Fluorospark (registered trade mark) Kinase/ADP Multi-Assay Kit; manufactured by FUJIFILM Wako Pure Chemical Corporation], and the mixture was reacted at room temperature for 30 min. Successively, 5 μL of a reaction quenching liquid [Fluorospark (registered trade mark) Kinase/ADP Multi-Assay Kit; manufactured by FUJIFILM Wako Pure Chemical Corporation] was added to discontinue the reaction. Thereafter, the ADP concentration of the reaction solution was quantified by EnSpire (manufactured by PerkinElmer) to detect the kinase reaction.

inhibition at 0.1 µM (final concentration 100 nM): ≥ 40%
inhibition at 1 µM (final concentration 1000 nM): ≥ 40%
SMILES: CC/C(=N\NC(=O)C(C)Nc1cccnc1)c1ccc(O)c(C)c1O (centres unmarked) [A-004, (E)-N′-(1-(2,4-dihydroxy-3-methylphenyl)propylidene)-2-(pyridin-3-ylamino)propanehydrazide]
